Experimental data as given in PubChem BioAssay (NCI).
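A five-concentration, 48-hour dose response in 96-well plates underlies each endpoint, interpolated linearly between surrounding concentrations. GI50: concentration for 50% inhibition of growth. TGI: concentration producing complete growth inhibition.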

Key:
Assay in all cases: NCI tumour cell line growth inhibition, 48 h
NCI-H226 lung = system: NCI-H226 lung
786-0 renal = system: 786-0 renal
RXF 393 renal = system: RXF 393 renal
SW-620 colon = system: SW-620 colon
RPMI-8226 leukemia = system: RPMI-8226 leukemia
UACC-257 melanoma = system: UACC-257 melanoma
PC-3 prostate = system: PC-3 prostate
OVCAR-5 ovarian = system: OVCAR-5 ovarian
OVCAR-8 ovarian = system: OVCAR-8 ovarian
NCI/ADR-RES ovarian = system: NCI/ADR-RES ovarian

`Cn1cc(S(=O)(=O)N2CCC3=Cc4c(cnn4-c4ccc(F)cc4)C[C@]3(C(=O)c3cc(C(F)(F)F)ccn3)C2)cn1` showed a GI50 (NCI-H226 lung) of 81.1 µM, a TGI (NCI-H226 lung) of over 100 µM and a GI50 (786-0 renal) of over 100 µM. The TGI (786-0 renal) was over 100 µM, the GI50 (RXF 393 renal) was 5.19 µM and the TGI (RXF 393 renal) was over 100 µM. For the same compound, the GI50 (SW-620 colon) was over 100 µM, the TGI (SW-620 colon) was over 100 µM and the GI50 (RPMI-8226 leukemia) was 93.7 µM. The TGI (RPMI-8226 leukemia) was over 100 µM, the GI50 (UACC-257 melanoma) was over 100 µM and the TGI (UACC-257 melanoma) was over 100 µM. The GI50 (PC-3 prostate) was 31.4 µM, the TGI (PC-3 prostate) was over 100 µM and the GI50 (OVCAR-5 ovarian) was over 100 µM. It also gave a TGI (OVCAR-5 ovarian) of over 100 µM, a GI50 (OVCAR-8 ovarian) of over 100 µM and a TGI (OVCAR-8 ovarian) of over 100 µM. The GI50 (NCI/ADR-RES ovarian) was over 100 µM and the TGI (NCI/ADR-RES ovarian) was over 100 µM.
`CC(C)(C)c1cc(C(=O)/C=C/c2ccc(C(=O)O)cc2)cc(C(C)(C)C)c1` was tested, and the TGI (NCI-H226 lung) was 4.22 µM, the TGI (786-0 renal) was 13.9 µM and the TGI (RXF 393 renal) was 4.34 µM. The TGI (SW-620 colon) was 12.1 µM, the TGI (RPMI-8226 leukemia) was 6.06 µM and the TGI (UACC-257 melanoma) was 21.9 µM. For the same compound, the TGI (PC-3 prostate) was 16.4 µM, the TGI (OVCAR-5 ovarian) was 17.2 µM and the TGI (OVCAR-8 ovarian) was 7.13 µM. The TGI (NCI/ADR-RES ovarian) was 6.8 µM.
`NCCCn1c2c(c3ccccc3c1=O)C(=O)c1ccccc1-2` was tested, and the GI50 (NCI-H226 lung) was 0.143 µM, the TGI (NCI-H226 lung) was 1.74 µM and the GI50 (786-0 renal) was 0.119 µM. The TGI (786-0 renal) was 1.01 µM, the GI50 (RXF 393 renal) was 1.22 µM and the TGI (RXF 393 renal) was 6.68 µM. It also gave a GI50 (SW-620 colon) of 0.0713 µM, a TGI (SW-620 colon) of 5.83 µM and a TGI (RPMI-8226 leukemia) of 0.528 µM. It also gave a GI50 (UACC-257 melanoma) of 0.544 µM, a TGI (UACC-257 melanoma) of 2.19 µM and a GI50 (PC-3 prostate) of 0.451 µM. The TGI (PC-3 prostate) was 2.98 µM, the GI50 (OVCAR-5 ovarian) was 0.306 µM and the TGI (OVCAR-5 ovarian) was 2.94 µM. The GI50 (OVCAR-8 ovarian) was 0.0658 µM, the TGI (OVCAR-8 ovarian) was 1.32 µM and the GI50 (NCI/ADR-RES ovarian) was 0.145 µM. The TGI (NCI/ADR-RES ovarian) was 2.68 µM.
In the case of `Cc1noc2c1-c1ccccc1C(c1ccc(Cl)cc1)=N[C@H]2CC(N)=O`, the GI50 (NCI-H226 lung) is reported as 11.6 µM, the TGI (NCI-H226 lung) is reported as over 100 µM and the GI50 (786-0 renal) is reported as 10.9 µM. For the same compound, the TGI (786-0 renal) was over 100 µM, the GI50 (RXF 393 renal) was 13 µM and the TGI (RXF 393 renal) was 72.7 µM. For the same compound, the GI50 (SW-620 colon) was 26.1 µM, the TGI (SW-620 colon) was over 100 µM and the GI50 (RPMI-8226 leukemia) was 0.362 µM. It also gave a TGI (RPMI-8226 leukemia) of 10.7 µM, a GI50 (UACC-257 melanoma) of 7.4 µM and a TGI (UACC-257 melanoma) of over 100 µM. It also gave a GI50 (PC-3 prostate) of 12 µM, a TGI (PC-3 prostate) of over 100 µM and a GI50 (OVCAR-5 ovarian) of over 100 µM. It also gave a TGI (OVCAR-5 ovarian) of over 100 µM, a GI50 (OVCAR-8 ovarian) of 15.2 µM and a TGI (OVCAR-8 ovarian) of over 100 µM. For the same compound, the GI50 (NCI/ADR-RES ovarian) was 2.74 µM and the TGI (NCI/ADR-RES ovarian) was over 100 µM.
`Cn1c(=S)c2[nH]c(SCCCc3ccccc3)nc2n(C)c1=O` was tested, and the TGI (NCI-H226 lung) was 81.1 µM, the TGI (786-0 renal) was over 100 µM and the TGI (RXF 393 renal) was over 100 µM. For the same compound, the TGI (SW-620 colon) was over 100 µM, the TGI (RPMI-8226 leukemia) was 92.6 µM and the TGI (UACC-257 melanoma) was 44.8 µM. The TGI (PC-3 prostate) was over 100 µM, the TGI (OVCAR-5 ovarian) was 93.3 µM and the TGI (OVCAR-8 ovarian) was over 100 µM. The TGI (NCI/ADR-RES ovarian) was over 100 µM.
In the case of `Cc1sc2c(c1C)C(c1ccc(Cl)cc1)=N[C@@H](CC(=O)Nc1ccc(OCCOCCOCCOCCNc3cccc4c3C(=O)N(C3CCC(=O)NC3=O)C4=O)cc1)c1nnc(C)n1-2` (stereo partly drawn), the GI50 (NCI-H226 lung) is reported as under 0.0212 µM, the TGI (NCI-H226 lung) is reported as over 100 µM and the TGI (786-0 renal) is reported as over 100 µM. It also gave a GI50 (RXF 393 renal) of 0.803 µM, a TGI (RXF 393 renal) of 48.5 µM and a GI50 (SW-620 colon) of 0.0787 µM. For the same compound, the TGI (SW-620 colon) was over 100 µM, the GI50 (RPMI-8226 leukemia) was under 0.0175 µM and the TGI (RPMI-8226 leukemia) was over 100 µM. The GI50 (UACC-257 melanoma) was 10.6 µM, the TGI (UACC-257 melanoma) was over 100 µM and the GI50 (PC-3 prostate) was under 0.02 µM. It also gave a TGI (PC-3 prostate) of over 100 µM, a GI50 (OVCAR-5 ovarian) of under 0.0465 µM and a TGI (OVCAR-5 ovarian) of over 100 µM. The GI50 (OVCAR-8 ovarian) was under 0.0193 µM, the TGI (OVCAR-8 ovarian) was over 100 µM and the GI50 (NCI/ADR-RES ovarian) was over 52.8 µM. The TGI (NCI/ADR-RES ovarian) was over 100 µM.
`COC(=O)C(=O)CC(=O)c1cccc(OC)c1` was tested, and the TGI (NCI-H226 lung) was over 100 µM, the TGI (786-0 renal) was over 100 µM and the TGI (RXF 393 renal) was over 100 µM. It also gave a TGI (SW-620 colon) of over 100 µM, a TGI (RPMI-8226 leukemia) of over 100 µM and a TGI (UACC-257 melanoma) of over 100 µM. The TGI (PC-3 prostate) was over 100 µM, the TGI (OVCAR-5 ovarian) was over 100 µM and the TGI (OVCAR-8 ovarian) was over 100 µM. For the same compound, the TGI (NCI/ADR-RES ovarian) was over 100 µM.
`NC(N)=N/N=C(\N=Nc1ccccc1)c1ccc(Cl)cc1` showed a GI50 (NCI-H226 lung) of 3.66 µM, a TGI (NCI-H226 lung) of 18.8 µM and a GI50 (786-0 renal) of 2.03 µM. It also gave a TGI (786-0 renal) of 8.36 µM, a GI50 (RXF 393 renal) of 2.69 µM and a TGI (RXF 393 renal) of 9.33 µM. The GI50 (SW-620 colon) was 1.41 µM, the TGI (SW-620 colon) was 3.54 µM and the GI50 (RPMI-8226 leukemia) was 3.21 µM. It also gave a TGI (RPMI-8226 leukemia) of 12 µM, a GI50 (UACC-257 melanoma) of 2.42 µM and a TGI (UACC-257 melanoma) of 6.37 µM. For the same compound, the GI50 (PC-3 prostate) was 2.48 µM, the TGI (PC-3 prostate) was 11.3 µM and the GI50 (OVCAR-5 ovarian) was 3.69 µM. The TGI (OVCAR-5 ovarian) was 16.8 µM, the GI50 (OVCAR-8 ovarian) was 2.81 µM and the TGI (OVCAR-8 ovarian) was 9.58 µM. It also gave a GI50 (NCI/ADR-RES ovarian) of 2.76 µM and a TGI (NCI/ADR-RES ovarian) of 10.4 µM.
For `NCCCOc1cc2ccccc2cc1C(=O)NCCCOc1cc2ccccc2cc1C(=O)Nc1ccc(Cl)cc1O`, the GI50 (NCI-H226 lung) was 0.477 µM, the TGI (NCI-H226 lung) was 1.11 µM and the GI50 (786-0 renal) was 0.199 µM. The TGI (786-0 renal) was 0.441 µM, the GI50 (RXF 393 renal) was 0.24 µM and the TGI (RXF 393 renal) was 0.928 µM. The GI50 (SW-620 colon) was 0.189 µM, the TGI (SW-620 colon) was 0.381 µM and the GI50 (RPMI-8226 leukemia) was 0.578 µM. The TGI (RPMI-8226 leukemia) was 7.09 µM, the GI50 (UACC-257 melanoma) was 1.23 µM and the TGI (UACC-257 melanoma) was 2.59 µM. It also gave a GI50 (PC-3 prostate) of 0.306 µM, a TGI (PC-3 prostate) of 0.974 µM and a GI50 (OVCAR-5 ovarian) of 1.09 µM. The TGI (OVCAR-5 ovarian) was 2.56 µM, the GI50 (OVCAR-8 ovarian) was 0.24 µM and the TGI (OVCAR-8 ovarian) was 0.557 µM. It also gave a GI50 (NCI/ADR-RES ovarian) of 1.22 µM and a TGI (NCI/ADR-RES ovarian) of 6.01 µM.
Compound `CCc1nc(Cl)c(Cl)c(Cl)n1` has a TGI (NCI-H226 lung) of over 100 µM, a TGI (786-0 renal) of over 100 µM and a TGI (RXF 393 renal) of over 100 µM. The TGI (SW-620 colon) was over 100 µM, the TGI (RPMI-8226 leukemia) was over 100 µM and the TGI (UACC-257 melanoma) was over 100 µM. The TGI (PC-3 prostate) was over 100 µM, the TGI (OVCAR-5 ovarian) was over 100 µM and the TGI (OVCAR-8 ovarian) was over 100 µM. The TGI (NCI/ADR-RES ovarian) was over 100 µM.
